From the supplement of paper PMC6045584
± gives the standard deviation of the averaged measurements.

What was measured:
OSI-906 [1] = compound: T1, C[C@]1(O)C[C@@H](c2nc(-c3ccc4ccc(-c5ccccc5)nc4c3)c3c(N)nccn32)C1 [OSI-906]; test: surviving fraction relative to DMSO-only wells; higher = less growth inhibition; details: exposure time: 5 days
Procedure, shortened: (§1)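 Viability was determined by CellTiter-Glo luminescence, expressed as surviving fraction normalised to the median of DMSO-only wells. The cells were log-phase tumour cell lines seeded at 250–500 per well in 384-well plates and, after 24 hours, exposed continuously for five days to inhibitors at 0.5, 1, 5, 10, 50, 100, 500 and 1000 nM. Three screens per line were run, keeping only lines with replicate Pearson r >0.7 and median Z' >0.3.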

[2] = compound: CC(=O)NCC(=O)N1[C@@H]2CC[C@H]1c1ccc(Nc3ncc(C(F)(F)F)c(NC4CCC4)n3)cc12; test: as above; details: exposure time: 5 days
Procedure, shortened: as §1

PACLITAXEL [3] = compound: T2, CC(=O)O[C@H]1C(=O)[C@@]2(C)[C@H]([C@H](OC(=O)c3ccccc3)[C@]3(O)C[C@H](OC(=O)[C@H](O)[C@@H](NC(=O)c4ccccc4)c4ccccc4)C(C)=C1C3(C)C)[C@]1(OC(C)=O)CO[C@@H]1C[C@@H]2O [PACLITAXEL]; test: as above; details: exposure time: 5 days
Procedure, shortened: as §1

CARBOPLATIN [4] = compound: T3, O=C(O)C1(C(=O)O)CCC1.[NH2-].[NH2-].[Pt+2] [CARBOPLATIN]; test: as above; details: exposure time: 5 days
Procedure, shortened: as §1

GEFITINIB = compound: COc1cc2ncnc(Nc3ccc(F)c(Cl)c3)c2cc1OCCCN1CCOCC1 [GEFITINIB]; test: as above; details: exposure time: 5 days
Procedure, shortened: as §1

[5] = compound: CC(=O)c1c(C)c2cnc(Nc3ccc(N4CCNCC4)cn3)nc2n(C2CCCC2)c1=O; test: as above; details: exposure time: 5 days
Procedure, shortened: as §1

YM155 [6] = compound: T4, COCC[n+]1c2c(n(Cc3cnccn3)c1C)C(=O)c1ccccc1C2=O [YM155]; test: as above; details: exposure time: 5 days
Procedure, shortened: as §1

CELECOXIB [7] = compound: T5, Cc1ccc(-c2cc(C(F)(F)F)nn2-c2ccc(S(N)(=O)=O)cc2)cc1 [CELECOXIB]; test: as above; details: exposure time: 5 days
Procedure, shortened: as §1

CAMPTOTHECIN [8] = compound: T6, CC[C@@]1(O)C(=O)OCc2c1cc1n(c2=O)Cc2cc3ccccc3nc2-1 [CAMPTOTHECIN]; test: as above; details: exposure time: 5 days
Procedure, shortened: as §1

OSI-906 [9] = compound: T1, OSI-906; test: area under dose-response curve of surviving fraction (unscaled, Aref=0) (surviving fraction x log10(nM)); higher = more resistant; details: exposure time: 5 days; dose range 0.5-1000 nM
Procedure, shortened: (§2)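 Surviving fractions were fitted by 3-parameter logistic regression in the drc R package to give dose-response survival curves. They came from tumour cell lines treated for five days with eight inhibitor concentrations from 0.5 to 1000 nM and read by CellTiter-Glo luminescence against DMSO-only wells. The area under the curve is the unscaled activity area. It was calculated over log10 dose with Aref = 0.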

PACLITAXEL [10] = compound: T2, PACLITAXEL; test: as above; details: exposure time: 5 days; dose range 0.5-1000 nM
Procedure, shortened: as §2

CARBOPLATIN [11] = compound: T3, CARBOPLATIN; test: as above; details: exposure time: 5 days; dose range 0.5-1000 nM
Procedure, shortened: as §2

[12] = compound: CC(=O)c1c(C)c2cnc(Nc3ccc(N4CCNCC4)cn3)nc2n(C2CCCC2)c1=O; test: as above; details: exposure time: 5 days; dose range 0.5-1000 nM
Procedure, shortened: as §2

YM155 [13] = compound: T4, YM155; test: as above; details: exposure time: 5 days; dose range 0.5-1000 nM
Procedure, shortened: as §2

CELECOXIB [14] = compound: T5, CELECOXIB; test: as above; details: exposure time: 5 days; dose range 0.5-1000 nM
Procedure, shortened: as §2

CAMPTOTHECIN [15] = compound: T6, CAMPTOTHECIN; test: as above; details: exposure time: 5 days; dose range 0.5-1000 nM
Procedure, shortened: as §2

NOS1 BONE showed a surviving fraction (OSI-906 [1]; 0.5 nM) of 0.916 ± 0.13, a surviving fraction (OSI-906 [1]; 1 nM) of 0.944 ± 0.062 and a surviving fraction (OSI-906 [1]; 5 nM) of 1.16 ± 0.49. The surviving fraction (OSI-906 [1]; 10 nM) was 1 ± 0.15, the surviving fraction (OSI-906 [1]; 50 nM) was 1 ± 0.059 and the surviving fraction (OSI-906 [1]; 100 nM) was 0.884 ± 0.057. For the same test system, the surviving fraction (OSI-906 [1]; 500 nM) was 0.465 ± 0.028, the surviving fraction (OSI-906 [1]; 1000 nM) was 0.462 ± 0.029 and the surviving fraction ([2]; 0.5 nM) was 1.25 ± 0.038. The surviving fraction ([2]; 1 nM) was 1.29 ± 0.1, the surviving fraction ([2]; 5 nM) was 1.53 ± 0.21 and the surviving fraction ([2]; 10 nM) was 1.21 ± 0.095. For the same test system, the surviving fraction ([2]; 50 nM) was 0.84 ± 0.062, the surviving fraction ([2]; 100 nM) was 0.724 ± 0.055 and the surviving fraction ([2]; 500 nM) was 0.302 ± 0.017. It also gave a surviving fraction ([2]; 1000 nM) of 0.219 ± 0.028, a surviving fraction (PACLITAXEL [3]; 0.5 nM) of 1.08 ± 0.072 and a surviving fraction (PACLITAXEL [3]; 1 nM) of 0.6 ± 0.053. It also gave a surviving fraction (PACLITAXEL [3]; 5 nM) of 0.396 ± 0.026, a surviving fraction (PACLITAXEL [3]; 10 nM) of 0.304 ± 0.0081 and a surviving fraction (PACLITAXEL [3]; 50 nM) of 0.287 ± 0.024. For the same test system, the surviving fraction (PACLITAXEL [3]; 100 nM) was 0.252 ± 0.013, the surviving fraction (PACLITAXEL [3]; 500 nM) was 0.214 ± 0.039 and the surviving fraction (PACLITAXEL [3]; 1000 nM) was 0.21 ± 0.024. It also gave a surviving fraction (CARBOPLATIN [4]; 0.5 nM) of 1.22 ± 0.2, a surviving fraction (CARBOPLATIN [4]; 1 nM) of 1.08 ± 0.076 and a surviving fraction (CARBOPLATIN [4]; 5 nM) of 1.31 ± 0.13. For the same test system, the surviving fraction (CARBOPLATIN [4]; 10 nM) was 1.25 ± 0.1, the surviving fraction (CARBOPLATIN [4]; 50 nM) was 1.22 ± 0.14 and the surviving fraction (CARBOPLATIN [4]; 100 nM) was 1.23 ± 0.1. The surviving fraction (CARBOPLATIN [4]; 500 nM) was 1.11 ± 0.051, the surviving fraction (CARBOPLATIN [4]; 1000 nM) was 0.955 ± 0.073 and the surviving fraction (GEFITINIB; 0.5 nM) was 1.1 ± 0.073. For the same test system, the surviving fraction (GEFITINIB; 1 nM) was 1.11 ± 0.032, the surviving fraction (GEFITINIB; 5 nM) was 1.25 ± 0.23 and the surviving fraction (GEFITINIB; 10 nM) was 1.22 ± 0.29. For the same test system, the surviving fraction (GEFITINIB; 50 nM) was 1.17 ± 0.085, the surviving fraction (GEFITINIB; 100 nM) was 1.11 ± 0.046 and the surviving fraction (GEFITINIB; 500 nM) was 0.871 ± 0.048. For the same test system, the surviving fraction (GEFITINIB; 1000 nM) was 0.754 ± 0.031, the surviving fraction ([5]; 0.5 nM) was 0.935 ± 0.071 and the surviving fraction ([5]; 1 nM) was 0.997 ± 0.15. The surviving fraction ([5]; 5 nM) was 1.17 ± 0.086, the surviving fraction ([5]; 10 nM) was 0.969 ± 0.053 and the surviving fraction ([5]; 50 nM) was 1.07 ± 0.055. The surviving fraction ([5]; 100 nM) was 1.11 ± 0.034, the surviving fraction ([5]; 500 nM) was 1.09 ± 0.11 and the surviving fraction ([5]; 1000 nM) was 1.09 ± 0.061. For the same test system, the surviving fraction (YM155 [6]; 0.5 nM) was 1.4 ± 0.44, the surviving fraction (YM155 [6]; 1 nM) was 1.03 ± 0.084 and the surviving fraction (YM155 [6]; 5 nM) was 0.316 ± 0.034. The surviving fraction (YM155 [6]; 10 nM) was 0.17 ± 0.025, the surviving fraction (YM155 [6]; 50 nM) was 0.0643 ± 0.0076 and the surviving fraction (YM155 [6]; 100 nM) was 0.048 ± 0.0062. It also gave a surviving fraction (YM155 [6]; 500 nM) of 0.0337 ± 0.0058, a surviving fraction (YM155 [6]; 1000 nM) of 0.0323 ± 0.0025 and a surviving fraction (CELECOXIB [7]; 0.5 nM) of 1.18 ± 0.12. It also gave a surviving fraction (CELECOXIB [7]; 1 nM) of 1.15 ± 0.34, a surviving fraction (CELECOXIB [7]; 5 nM) of 1.16 ± 0.071 and a surviving fraction (CELECOXIB [7]; 10 nM) of 1.25 ± 0.051. It also gave a surviving fraction (CELECOXIB [7]; 50 nM) of 1.18 ± 0.019, a surviving fraction (CELECOXIB [7]; 100 nM) of 1.21 ± 0.054 and a surviving fraction (CELECOXIB [7]; 500 nM) of 1.12 ± 0.11. For the same test system, the surviving fraction (CELECOXIB [7]; 1000 nM) was 1.16 ± 0.075, the surviving fraction (CAMPTOTHECIN [8]; 0.5 nM) was 0.833 ± 0.15 and the surviving fraction (CAMPTOTHECIN [8]; 1 nM) was 0.867 ± 0.02. It also gave a surviving fraction (CAMPTOTHECIN [8]; 5 nM) of 0.663 ± 0.067, a surviving fraction (CAMPTOTHECIN [8]; 10 nM) of 0.494 ± 0.059 and a surviving fraction (CAMPTOTHECIN [8]; 50 nM) of 0.636 ± 0.037. The surviving fraction (CAMPTOTHECIN [8]; 100 nM) was 0.552 ± 0.036, the surviving fraction (CAMPTOTHECIN [8]; 500 nM) was 0.392 ± 0.039 and the surviving fraction (CAMPTOTHECIN [8]; 1000 nM) was 0.337 ± 0.026. The “area under dose-response curve” value (OSI-906 [9]) was 2.83, the “area under dose-response curve” value (PACLITAXEL [10]) was 1.13 and the “area under dose-response curve” value (CARBOPLATIN [11]) was 3.95. For the same test system, the “area under dose-response curve” value [12] was 3.53, the “area under dose-response curve” value (YM155 [13]) was 1.08 and the “area under dose-response curve” value (CELECOXIB [14]) was 3.88. For the same test system, the “area under dose-response curve” value (CAMPTOTHECIN [15]) was 1.96.
